System: baculovirus
Test: TCID50 assay of infectious baculovirus titer after lysis (baculovirus clearance)
Format: cell-based
Details: for baculovirus clearance, TCID50 results: study 1, after detergent treatment (FIG. 3); for baculovirus clearance, TCID50 samples: study 2, CLB, all concentrations tested (0.25% through 1%), bulk material 7.8 log TCID50/mL
Source text: A reduction in titer of a rod-like shaped virus, i.e., the factor by which the titer of the virus to be removed is decreased, is preferably at least 5 logs, e.g. after a mixed population of parvoviral particles and 10×10^1 baculoviral virions had been separated in accordance with a method of the invention, no baculoviral virions were then detected in the filtrate. Preferably, the reduction in titer of a rod-like shaped virus that is achieved by a method of the invention is at least 5.5 logs, at least 6 logs, at least 6.5 logs, at least 7 logs, at least 8 logs, at least 9 logs, most preferably at least 10 logs. The titer can be determined by general methods known in the art, such as for example by a Tissue Culture Infectious Dose 50% (TCID50) assay. For example, the infectious baculovirus titer of a population of baculoviral virions in a sample can be determined using a TCID50 assay. This method is based on the infection of monolayers of Sf9 insect cells with infectious baculovirus in a positive control sample. A serial dilution in culture medium of the positive control sample is used to infect the cells. The cells are incubated at +28° C. for 7 days. Subsequently, the supernatants are transferred to newly prepared plates with monolayers of Sf9 insect cells and incubated at +28° C. for 7 days. As infection proceeds, the infected cells are not able to remain attached to each other and to the plate surface and form loose cells, i.e., show cytopathogenic effect (CPE), which can be observed microscopically. The titer in log 10 TCID50/mL is calculated using the Spearman-KArber method.
Analytics performed on samples during these studies included: qPCR to determine vector genome copies (GC) concentration (GC/mL), SEC-HPLC was used to determine total particle (TP) content (TP/mL) which includes empty and full particles which can only be done of samples after affinity chromatography. A TCID50 assay is a measure of infectious baculovirus titer and is used to test clearance of baculovirus after the lysis step where the detergent is added. Potency was determined based on the ability of the product to mediate production of active transgene polypeptide product (here FIX) by Huh-7 cells as compared to a reference sample. Huh-7 cells are infected and cultured to allow production of transgene polypeptide which is then quantified using a commercially obtained activity assay (221805 or 221806 from Hyphen Biomed). LDAO clearance in the drug substance (DS) was measured with an outsourced commercially available chromatographic method.
4.1 different surfactants can be used This first study involved crude bulk material generation using a shaker flask-based protocol following the process outlined in Example 1, until affinity chromatography; where the batch binding method was used. […]

| Structure (SMILES) | baculovirus clearance, TCID50 results | baculovirus clearance, TCID50 samples |
| --- | --- | --- |
| CCCCCCCCCCCCO[C@@H]1O[C@H](CO)[C@@H](O[C@H]2O[C@H](CO)[C@@H](O)[C@H](O)[C@H]2O)[C@H](O)[C@H]1O [DDM, n-dodecyl-beta-D-maltoside] | below the limit of detection | below the limit of detection |
| CCCCCCCCCCCC[N+](C)(C)[O-] [LDAO, lauryldimethylamine oxide] | below the limit of detection | below the limit of detection |

— US20240287545A1, “Improved lysis procedures” (uniQure biopharma B.V., priority 2021, published 2024)
